Measurements taken from patent publication US20170071852A1, “THERAPEUTIC OR PREVENTIVE AGENT FOR MEIBOMIAN GLAND DYSFUNCTION OR MEIBOMIAN GLAND BLOCKAGE” (Santen Pharmaceutical Co., Ltd., priority 2012, published 2017).
Entries after “also recorded” stand apart in the source; their conditions may differ.

Experiments:
female Lewis rats = assay: Test for meibomian gland peripheral telangiectasia by administration of complete Freund's adjuvant using rats; format: in vivo, rat; conditions: for Telangiectasia score (mean): six eyes
Method: 1. Test for Meibomian Gland Peripheral Telangiectasia by Administration of Full Friend's Adjuvant Using Rats Clarithromycin (LKT Laboratories, Inc.), concentrated glycerin, dibasic sodium phosphate hydrate and polyoxyl 40 stearate were added to purified water and dissolved to prepare a test sample comprising clarithromycin at a final concentration of 1% (w/v), at pH 7. Twenty five μl of complete Freund's adjuvant was administered to one site of the right upper eyelid of female Lewis rats at five weeks age. On the seventh day from the initiation, the periphery of the meibomian gland orifices on the right upper eyelid was observed using a slit-lamp and a telangiectasia score was determined. The eyelid margin of the upper eyelid was divided into three segments: ear, middle and nasal sites, and based on criteria described in Table 1, scores of telangiectasia peripheral to the meibomian gland orifices in each segment were determined and the sum of the scores in three segments were calculated as the telangiectasia score of one eye. The presence or absence of dilation of the capillaries was determined based on whether a capillary that is usually not visible could be ascertained as a result of enlargement of the capillary diameter. [table] After dividing into a saline-administered group and a 1% (w/v) clarithromycin aqueous solution-administered groups, the test was carried out with six eyes in each group so as to minimize variations in mean scores, and from the 8th day after initiation, saline (5 μl/eye, six times per day) or 1% (w/v) clarithromycin aqueous solution (5 μl/eye, three or six times per day) were instilled into the right eyes for 21 days. At 28 days after initiation, the peripheries of the meibomian gland orifices on the right upper eyelids were observed using a slit-lamp and the telangiectasia score was determined.

[1] = tested on: Male Hos:HR-1 hairless mice; assay: Test for obstruction of meibomian gland orifices by feeding HR-AD diet using hairless mice; format: in vivo, mouse; conditions: for Number of obstructed meibomian gland orifices (mean, out of eight): six eyes
Method: 2. Test for Obstruction of Meibomian Gland Orifices by Feeding HR-AD Diet Using Hairless Mice A 1% (w/v) clarithromycin test solution was prepared by the same operation as described in Pharmacological Test 1. Male Hos:HR-1 hairless mice at five weeks of age were divided into a group of 6 fed a regular diet (CRF-1 diet, manufactured by Oriental Yeast Co., Ltd.); and a group of 12 fed an HR-AD diet (manufactured by Nosan Corporation), and the mice in each respective group were freely allowed to feed the regular diet or HR-AD diet. On the 28th day after the start of the diets, meibomian gland orifices were observed using a slit-lamp and the number of obstructed orifices out of eight meibomian gland orifices of the center of the right upper eyelid were counted. The presence or absence of an obstruction of the meibomian gland orifice was determined based on whether the meibomian gland orifice was in a cloudy and swollen state. The 12 mice in the HR-AD diet group were further divided into a saline-administered group; and a 1% (w/v) clarithromycin aqueous solution-administered group, and testing was carried out with six eyes in each group so as to minimize variations in the mean scores of the number of obstructed meibomian gland orifices in each group; from the 29th day after starting the diets, saline (2 μl/eye, three times per day) or 1% (w/v) clarithromycin aqueous solution (2 μl/eye, three times per day) were instilled for 14 days. At 42 days after starting the diet, meibomian gland orifices were observed using a slit-lamp and the number of obstructed orifices out of eight meibomian gland orifices of the center of the right upper eyelid were counted.

[2] = 42 days after starting HR-AD diet (14 days from starting administration), 1% (w/v) aqueous solution

SMILES: CC[C@H]1OC(=O)[C@H](C)[C@@H](O[C@H]2C[C@@](C)(OC)[C@@H](O)[C@H](C)O2)[C@H](C)[C@@H](O[C@@H]2O[C@H](C)C[C@H](N(C)C)[C@H]2O)[C@](C)(OC)C[C@@H](C)C(=O)[C@H](C)[C@@H](O)[C@]1(C)O [clarithromycin, Clarithromycin]
- Telangiectasia score (mean) (female Lewis rats; 7 days after initiation (day 0 from start of administration, baseline), 1% (w/v) aqueous solution group, instilled 3 times per day): 5.3
- Telangiectasia score (mean) (female Lewis rats; 7 days after initiation (day 0 from start of administration, baseline), 1% (w/v) aqueous solution group, instilled 6 times per day): 5.3
- Telangiectasia score (mean) (female Lewis rats; 28 days after initiation (day 21 from start of administration), 1% (w/v) aqueous solution, 5 μl/eye, instilled 3 times per day): 2.8
- Telangiectasia score (mean) (female Lewis rats; 28 days after initiation (day 21 from start of administration), 1% (w/v) aqueous solution, 5 μl/eye, instilled 6 times per day): 2.5
- Telangiectasia score in the vicinity of the meibomian gland orifices compared to the saline-administered group (female Lewis rats; 28 days after initiation (day 21 from start of administration), 1% aqueous solution instilled three or six times per day): notably improved the telangiectasia score; also recorded: remarkably lower
- Number of obstructed meibomian gland orifices (mean, out of eight) ([1]; 28 days after starting feeding HR-AD diet (day 0 from start of administration, baseline), 1% (w/v) aqueous solution group): 5.5
- Meibomian gland concretion [1, 2]: improved
- Number of obstructed meibomian gland orifices, change in words [1, 2]: notably reduced the number of obstructions; also recorded: remarkably decreased
- Number of obstructed meibomian gland orifices (mean, out of eight) ([1]; 42 days after starting feeding HR-AD diet (day 14 from start of administration), 1% (w/v) aqueous solution, 2 μl/eye, three times per day): 1.8
